Laboratory results taken from patent US10183940B2, “Aryl and heteroaryl-fused tetrahydro-1,4-oxazepine amides as somatostatin receptor subtype 4 (SSTR4) agonists” (Boehringer Ingelheim International GmbH, priority 2014, dated 2019).

Legend:
[1] = molecular target: human Somatostatin 4 receptor (SSTR4) (Homo sapiens (Human), UniProt P31391); experiment: cAMP assay with human Somatostatin 4 receptor; format: cell-based; settings: hSSTR4 expressing H4 cells, inhibition of Forskolin-stimulated cAMP; read-out: SSTR4 agonism EC50
Experimental: Method description for cAMP assay with human Somatostatin 4 receptor.
The activation of the SSTR4 receptor (Gi coupled) causes an inhibition of intracellular cAMP after stimulation with Forskolin, which can be quantifiable by use of a suitable assay Kit and an adequate plate reader. This technique is used to characterize pharmacological effects of the SSTR4 receptor agonists by use of hSSTR4 expressing H4 cells.
Compounds are dissolved and diluted in DMSO. The final test solution contains […]. The cAMP standard (Lance cAMP 384 Kit; PerkinElmer, Cat #AD0264) is prepared in assay buffer (HBSS with 0.1% BSA, 5 mM HEPES, […], pH 7.4) containing 1% DMSO and the cAMP standard curve is included at least on one plate. Cells are centrifuged and suspended in assay buffer (incl. 1:100 diluted Alexa antibody).
For the assay 5 μl of a cell suspension (approximately 5000 cells/well)—incl. Alexa antibody (diluted 1:100) are added into a 384 well MTP microtitre plate excepting one row or column (depending on the plate layout), which is reserved for the standard curve. Then 2 μl of compound sample is added as concentration response curve (e.g. 1e-5 M to 6e-10 M), usually in triplicates. Each assay contains incubations with vehicle controls instead of compound as controls for non-inhibited cAMP generation (100% CTL; ‘high values’) and incubations with 1 μM Somatosatin as controls for full inhibition and background (0% CTL; ‘low values’). After approximately 10-15 min incubation time 3 μl Forskolin (dissolved in DMSO, final conc. 15 μM) is added. Then the plates are shaken briefly and incubated for 60 min at room temperature. After 60 min 10 μl of the detection mix is added into all wells followed by an additional incubation period of 1 h. The plates are read in a suitable plate reader.
The analysis of the data is based on the “ratio” of the time-resolved fluorescence measurements of donor and acceptor fluorophore (Ex: 320 nm; Em1: 665 nm; Em2: 615 nm; ratio 665/615). From this ratio, cAMP concentrations are calculated from standard curve and the EC50 is estimated by least square curve fit program.

[2] = Metabolic stability in human liver microsomes; format: in vitro ADME; settings: pH 7.6; pooled human liver microsomes, 37° C., 1 μM test compound, NADPH; read-out: Half-life t1/2
Experimental: The metabolic stability of the compounds according to the invention may be investigated as follows:
The metabolic degradation of the test compound is assayed at 37° C. with pooled human liver microsomes. The final incubation volume of 100 μl per time point contains TRIS buffer pH 7.6 at room temperature (0.1 M), magnesium chloride (5 mM), microsomal protein (1 mg/mL) and the test compound at a final concentration of 1 μM. Following a short preincubation period at 37° C., the reactions are initiated by addition of beta-nicotinamide adenine dinucleotide phosphate, reduced form (NADPH, 1 mM), and terminated by transferring an aliquot into solvent after different time points. After centrifugation (10000 g, 5 min), an aliquot of the supernatant is assayed by LC-MS/MS for the amount of parent compound. The half-life is determined by the slope of the semi-logarithmic plot of the concentration-time profile.

human Somatostatin 4 receptor (SSTR4), sequence (P31391 whole entry): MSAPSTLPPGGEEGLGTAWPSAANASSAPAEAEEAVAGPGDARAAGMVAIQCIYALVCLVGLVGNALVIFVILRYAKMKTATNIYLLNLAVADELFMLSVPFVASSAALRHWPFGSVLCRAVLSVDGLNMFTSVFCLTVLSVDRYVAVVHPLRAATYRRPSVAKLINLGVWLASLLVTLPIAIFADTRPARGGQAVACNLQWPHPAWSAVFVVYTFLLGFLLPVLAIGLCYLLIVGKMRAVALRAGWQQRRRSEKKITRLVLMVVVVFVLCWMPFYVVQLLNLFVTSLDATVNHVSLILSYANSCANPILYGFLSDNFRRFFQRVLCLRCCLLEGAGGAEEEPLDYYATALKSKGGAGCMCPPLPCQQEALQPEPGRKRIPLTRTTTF

Row | SMILES | EC50 [1] [nM] | half-life at 1 μM [2] [min]
1 | Cc1cc2cccnc2c(C(C)(C)NC(=O)c2cccc3c2OCCNC3)n1 [Example 1] | 58.1 | 
2 | CC(NC(=O)c1cccc2c1OCCNC2)c1nc2ccccc2[nH]1 (centres unmarked) [Example 2] | 302 | 
3 | CC(C)(NC(=O)c1cccc2c1OCCNC2)c1nc2ccc(Cl)cc2[nH]1 [Example 3] | 45.1 | 
4 | O=C(NC1(c2nc3ccc(Cl)cc3[nH]2)CC1)c1cccc2c1OCCNC2 [Example 4] | 342 | 
5 | O=C(NC1(c2nc3ccc(Cl)cc3[nH]2)CCOC1)c1cccc2c1OCCNC2 (centres unmarked) [Example 5] | 750 | 
6 | CC(C)(NC(=O)c1cccc2c1OCCNC2)c1cccc2ccccc12 [Example 7] | 1.4 | 32
7 | CC(C)(NC(=O)c1cccc2c1OCCNC2)c1ccc(Cl)c(Cl)c1.Cl [Example 8] | 22.3 | 4.4
8 | C[C@H](NC(=O)c1cccc2c1OCCNC2)c1cccc2ccccc12.Cl [Example 9] | 2.8 | 19
9 | CC(C)(NC(=O)c1cccc2c1OCCNC2)c1cccc2cccnc12 [Example 10] | 42.1 | 
10 | CC(C)(NC(=O)c1cccc2c1OCCNC2)c1cccc2cnccc12 [Example 11] | 423 | 
11 | CC(C)(NC(=O)c1cccc2c1OCCNC2)c1cccc2ncccc12 [Example 12] | 98.4 | 
12 | CC(C)(NC(=O)c1cccc2c1OCCNC2)c1ncc2ccccn12.Cl [Example 13] | 14.3 | > 130
13 | CC(C)(COc1cnccc1C(F)(F)F)NC(=O)c1cccc2c1OCCNC2 [Example 14] | 132 | 
14 | Cc1cccnc1OCC(C)(C)NC(=O)c1cccc2c1OCCNC2 [Example 15] | 28.1 | 
15 | CC(C)(NC(=O)c1cccc2c1OCCNC2)c1ccc(F)cc1 [Example 16] | 33 | 
16 | CC(C)(NC(=O)c1cccc2c1OCCNC2)c1ccc(Cl)cc1.Cl [Example 17] | 8.2 | 14
17 | Cn1nc(C(C)(C)NC(=O)c2cncc3c2OCCNC3)c2ccccc21 [Example 21] | 35.5 | 
18 | Cn1nc(C(C)(C)NC(=O)c2cccc3c2OCCNC3)c2c(F)cccc21 [Example 22] | 8 | 42
19 | Cn1nc(C(C)(C)NC(=O)c2cccc3c2OCCNC3)c2ccc(F)cc21 [Example 23] | 0.9 | 67

Row | SMILES | EC50 [1] [nM] | half-life at 1 μM [2] [min]
20 | Cc1cccc2c(C(C)(C)NC(=O)c3cccc4c3OCCNC4)cnn12 [Example 24] | 4.4 | 110
21 | Cn1nc(C(C)(C)NC(=O)c2cccc3c2OCCNC3)c2cccc(C(F)(F)F)c21 [Example 25] | 6.8 | 
22 | Cc1ncc(C(C)(C)NC(=O)c2cccc3c2OCCNC3)c2ccccc12 [Example 27] | 0.6 | > 130
23 | Cc1cc2ccccc2c(C(C)(C)NC(=O)c2cccc3c2OCCNC3)n1 [Example 28] | 4.2 | 30
24 | Cc1cc2ccccc2c(C(C)(C)NC(=O)c2nccc3c2OCCNC3)n1 [Example 29] | 19.9 | 27
25 | Cc1cc2ccccc2c(C(C)(C)NC(=O)c2ccnc3c2OCCNC3)n1 [Example 30] | 19 | 
26 | Cc1cc2ccccc2c(C(C)(C)NC(=O)c2cncc3c2OCCNC3)n1 [Example 31] | 37 | 
27 | Cc1cccc2c(C(C)(C)NC(=O)c3cccc4c3OCCNC4)noc12 [Example 32] | 2.8 | 54
28 | CC(C)(NC(=O)c1cccc2c1OCCNC2)c1noc2c(F)cccc12 [Example 34] | 18.2 | 
29 | CC(C)(NC(=O)c1nccc2c1OCCNC2)c1noc2c(F)cccc12 [Example 35] | 350 | 
30 | CC(C)(NC(=O)c1ccnc2c1OCCNC2)c1noc2c(F)cccc12 [Example 36] | 380 | 
31 | CC(C)(NC(=O)c1cncc2c1OCCNC2)c1noc2c(F)cccc12 [Example 37] | 1600 | 
32 | CC(C)(NC(=O)c1cccc2c1OCCNC2)c1noc2c(Cl)cccc12 [Example 38] | 2.9 | 35
33 | Cc1cccc2c(C(C)(C)NC(=O)c3cccc4c3OCCNC4)nn(C)c12 [Example 40] | 2.2 | 31
34 | Cc1cccc2c(C(C)(C)NC(=O)c3ccnc4c3OCCNC4)nn(C)c12 [Example 41] | 18.3 | > 130
35 | CC(C)(NC(=O)c1cccc2c1OCCNC2)c1n[nH]c2c(F)cccc12 [Example 43] | 2.2 | 87
36 | CC(C)(NC(=O)c1cccc2c1OCCNC2)c1n[nH]c2c(Cl)cccc12 [Example 44] | 1.3 | > 130
37 | Cc1cccc2c(C(C)(C)NC(=O)c3cccc4c3OCCNC4)ncnc12 [Example 45] | 9.2 | 110
38 | CC(C)(NC(=O)c1cccc2c1OCCNC2)c1ncnc2ccccc12 [Example 46] | 9.2 | > 130

Row | SMILES | EC50 [1] [nM] | half-life at 1 μM [2] [min]
39 | CC(C)(NC(=O)c1cccc2c1OCCNC2)c1ncc2c(Cl)cccn12 [Example 48] | 1.7 | 85
40 | Cc1cc(F)cn2c(C(C)(C)NC(=O)c3cccc4c3OCCNC4)ncc12 [Example 52] | 8.7 | 
41 | Cc1cccn2c(C3(NC(=O)c4cccc5c4OCCNC5)CCC3)ncc12 [Example 54] | 15.2 | 
42 | Cc1cccn2c(C(C)(NC(=O)c3cccc4c3OCCNC4)C3CC3)ncc12 (centres unmarked) [Example 55] | 134 | 
43 | Cc1cccn2c(C(C)(CC(C)C)NC(=O)c3cccc4c3OCCNC4)ncc12 (centres unmarked) [Example 56] | 1980 | 
44 | Cc1cccn2c(C3(NC(=O)c4cccc5c4OCCNC5)CCOC3)ncc12 (centres unmarked) [Example 57] | 354 | 
45 | Cc1cccn2c(C3(NC(=O)c4cccc5c4OCCNC5)CCOCC3)ncc12 [Example 58] | 2480 | 
46 | CC(C)(NC(=O)c1cccc2c1OCCNC2)c1ncc2c(OC(F)(F)F)cccn12 [Example 59] | 30.5 | 
47 | Cc1cccn2c([C@H](C)NC(=O)c3cccc4c3OCCNC4)ncc12 [Example 60] | 94.4 | 
48 | CC(C)(NC(=O)c1cccc2c1OCCNC2)c1nc(C(F)(F)F)c2c(F)cccn12 [Example 63] | 32.3 | 
49 | Cc1nc(C(C)(C)NC(=O)c2cccc3c2OCCNC3)c2cccc(C)c2n1 [Example 65] | 21.4 | 
50 | CC(C)(NC(=O)c1cccc2c1OCCNC2)c1ncnc2c(F)cccc12 [Example 66] | 30 | 
51 | Cc1nc(C(C)(C)NC(=O)c2cccc3c2OCCNC3)c2cccc(F)c2n1 [Example 67] | 75 | 
52 | Cc1cccn2c(C(C)(C)NC(=O)c3cccc4c3OCCNC4)nnc12 [Example 68] | 37.9 | 
53 | Cc1nc2ccccn2c1C(C)(C)NC(=O)c1cccc2c1OCCNC2 [Example 69] | 17.6 | 
54 | Cc1cccn2c(C3(NC(=O)c4nccc5c4OCCNC5)CC3)ncc12 [Example 73] | 39.3 | 
55 | COc1cccn2c(C(C)(C)NC(=O)c3nccc4c3OCCNC4)ncc12 [Example 74] | 106 | 
56 | Cc1cccn2c(C(C)(C)NC(=O)c3nccc4c3OCCNC4)nc(C3CC3)c12 [Example 76] | 145 | 
57 | Cc1cccn2c(C(C)(C)NC(=O)c3nccc4c3OCCNC4)ccc12 [Example 77] | 22.6 | 
